Experimental data: US20240043427A1 (Gilead Sciences, Inc., priority 2020, published 2024)

Molecular target: CD73 (Homo sapiens (Human), UniProt P21589)
Assay type: biochemical
Details: 1 mM NaH2PO4 in enzyme buffer, CD73 0.3 nM, AMP 15 uM
Procedure: Compound serial dilutions were pre-spotted into Thermo Nunc assay plate. 50 uL CD73 enzyme buffer (CD73 purchased from R&D system=0.6 nM, 25 mM Tris, pH 7.4, 5 mM MgCl2, 1 mM NaH2PO4) was added into the assay plate and incubate for 15 mins. […] After incubation for 60 mins, the supernatant (20 uL) was transferred into 384-well NUNC plate pre-filled with 60 uL Quench buffer (80% organic and 20% water+0.1% FA) with internal standard. The plate was spun down at 4500 rpm for 20 mins, then 20 uL of supernatant was transferred to another Nunc plate prefilled with 80 uL of water. The samples were analyzed using Rapid fire.

Sequence of CD73 (P21589 27-574): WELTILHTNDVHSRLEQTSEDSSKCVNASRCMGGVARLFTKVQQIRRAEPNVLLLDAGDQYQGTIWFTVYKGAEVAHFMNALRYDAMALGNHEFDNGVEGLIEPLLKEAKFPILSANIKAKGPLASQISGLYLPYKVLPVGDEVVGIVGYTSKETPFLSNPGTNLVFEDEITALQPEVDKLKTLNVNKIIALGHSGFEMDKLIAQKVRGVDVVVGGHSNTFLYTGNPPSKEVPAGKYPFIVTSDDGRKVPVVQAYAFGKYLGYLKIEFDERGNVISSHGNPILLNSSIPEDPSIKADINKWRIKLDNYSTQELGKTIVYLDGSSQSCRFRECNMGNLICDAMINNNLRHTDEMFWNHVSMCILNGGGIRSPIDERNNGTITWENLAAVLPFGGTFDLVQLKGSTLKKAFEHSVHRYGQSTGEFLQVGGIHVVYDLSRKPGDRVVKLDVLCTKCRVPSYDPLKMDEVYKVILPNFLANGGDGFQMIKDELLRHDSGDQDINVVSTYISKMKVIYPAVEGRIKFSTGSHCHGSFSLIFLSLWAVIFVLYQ

| Structure (SMILES) | IC50 [nM] |
| --- | --- |
| O=c1[nH]cc(-c2cc([C@H]3C[C@@H]3c3ncc(C(F)(F)F)s3)c3nccn3n2)c(=O)[nH]1 (racemic) [Example 364, 5-(8-((1S,2S)-2-(5-(trifluoromethyl)thiazol-2-yl)cyclopropyl)imidazo[1,2-b]pyridazin-6-yl)pyrimidine-2,4(1H,3H)-dione] | 7.17 |
| COC(=O)c1ccc([C@H]2C[C@@H]2c2cc(-c3c[nH]c(=O)[nH]c3=O)nn3ccnc23)cc1 (racemic) [Example 281, methyl 4-((1S,2S)-2-(6-(2,4-dioxo-1,2,3,4-tetrahydropyrimidin-5-yl)imidazo[1,2-b]pyridazin-8-yl)cyclopropyl)benzoate] | 1.54 |
| O=C(c1cccc([C@H]2C[C@@H]2c2cc(-c3c[nH]c(=O)[nH]c3=O)nn3ccnc23)c1)N1CC(F)(F)C1 (racemic) [Example 297, 5-(8-((1S,2S)-2-(3-(3,3-difluoroazetidine-1-carbonyl)phenyl)cyclopropyl)imidazo[1,2-b]pyridazin-6-yl)pyrimidine-2,4(1H,3H)-dione] | 1.51 |
| CC1(C)CCN(C(=O)c2ccc([C@H]3C[C@@H]3c3cc(-c4c[nH]c(=O)[nH]c4=O)nn4ccnc34)cc2)C1 (racemic) [Example 307, 5-(8-((1S,2S)-2-(4-(3,3-dimethylpyrrolidine-1-carbonyl)phenyl)cyclopropyl)imidazo[1,2-b]pyridazin-6-yl)pyrimidine-2,4(1H,3H)-dione] | 16.1 |
| CN(C)C(=O)c1cccc([C@H]2C[C@@H]2c2cc(-c3c[nH]c(=O)[nH]c3=O)nn3ccnc23)c1 (racemic) [Example 287, 3-((1S,2S)-2-(6-(2,4-dioxo-1,2,3,4-tetrahydropyrimidin-5-yl)imidazo[1,2-b]pyridazin-8-yl)cyclopropyl)-N,N-dimethylbenzamide] | 3.9 |
| O=C(Nc1ccccc1)[C@H]1C[C@@H]1c1cc(-c2c[nH]c(=O)[nH]c2=O)nn2ccnc12 (racemic) [Example 462, (1S,2S)-2-(6-(2,4-dioxo-1,2,3,4-tetrahydropyrimidin-5-yl)imidazo[1,2-b]pyridazin-8-yl)-N-phenylcyclopropane-1-carboxamide] | 9.39 |
| N#Cc1cc([C@H]2C[C@@H]2c2cc(-c3c[nH]c(=O)[nH]c3=O)nn3ccnc23)ccc1OC(F)(F)F (racemic) [Example 414, 5-((1S,2S)-2-(6-(2,4-dioxo-1,2,3,4-tetrahydropyrimidin-5-yl)imidazo[1,2-b]pyridazin-8-yl)cyclopropyl)-2-(trifluoromethoxy)benzonitrile] | 2.84 |
| O=C(c1cccc([C@H]2C[C@@H]2c2cc(-c3c[nH]c(=O)[nH]c3=O)nn3ccnc23)c1)N1CC(C(F)(F)F)C1 (racemic) [Example 296, 5-(8-((1S,2S)-2-(3-(3-(trifluoromethyl)azetidine-1-carbonyl)phenyl)cyclopropyl)imidazo[1,2-b]pyridazin-6-yl)pyrimidine-2,4(1H,3H)-dione] | 2.14 |
| O=c1[nH]cc(-c2cc([C@H]3C[C@@H]3c3ncc(C(F)(F)F)cn3)c3ncc(F)n3n2)c(=O)[nH]1 (racemic) [Example 378, 5-(3-fluoro-8-((1S,2S)-2-(5-(trifluoromethyl)pyrimidin-2-yl)cyclopropyl)imidazo[1,2-b]pyridazin-6-yl)pyrimidine-2,4(1H,3H)-dione] | 6.45 |
| O=c1[nH]cc(-c2cc([C@H]3C[C@@H]3c3ccc4c(C5CC5)nn(CC(F)(F)F)c4c3)c3nccn3n2)c(=O)[nH]1 (racemic) [Example 128, 5-(8-((1S,2S)-2-(3-cyclopropyl-1-(2,2,2-trifluoroethyl)-1H-indazol-6-yl)cyclopropyl)imidazo[1,2-b]pyridazin-6-yl)pyrimidine-2,4(1H,3H)-dione] | 1.84 |
| CC1(C)CCN(C(=O)c2cccc([C@H]3C[C@@H]3c3cc(-c4c[nH]c(=O)[nH]c4=O)nn4ccnc34)c2)C1 (racemic) [Example 308, 5-(8-((1S,2S)-2-(3-(3,3-dimethylpyrrolidine-1-carbonyl)phenyl)cyclopropyl)imidazo[1,2-b]pyridazin-6-yl)pyrimidine-2,4(1H,3H)-dione] | 5.47 |
| O=c1[nH]cc(-c2cc([C@H]3C[C@@H]3c3ccc(OCC(F)(F)F)cn3)c3nccn3n2)c(=O)[nH]1 (racemic) [Example 363, 5-(8-((1S,2S)-2-(5-(2,2,2-trifluoroethoxy)pyridin-2-yl)cyclopropyl)imidazo[1,2-b]pyridazin-6-yl)pyrimidine-2,4(1H,3H)-dione] | 2 |
| O=c1[nH]cc(-c2cc([C@H]3C[C@@H]3c3ccc4ncsc4c3)c3nc(C4CC4)cn3n2)c(=O)[nH]1 (racemic) [Example 143, 5-(8-((1S,2S)-2-(benzo[d]thiazol-6-yl)cyclopropyl)-2-cyclopropylimidazo[1,2-b]pyridazin-6-yl)pyrimidine-2,4(1H,3H)-dione] | 5.69 |
| O=c1[nH]cc(-c2cc([C@H]3C[C@@H]3c3ccncc3F)c3nccn3n2)c(=O)[nH]1 (racemic) [Example 161, 5-(8-((1S,2S)-2-(3-fluoropyridin-4-yl)cyclopropyl)imidazo[1,2-b]pyridazin-6-yl)pyrimidine-2,4(1H,3H)-dione] | 4.48 |
| O=C(c1ccc([C@H]2C[C@@H]2c2cc(-c3c[nH]c(=O)[nH]c3=O)nn3ccnc23)cc1)N1C[C@@H](F)[C@@H](F)C1 (racemic) [Example 301, 5-(8-((1S,2S)-2-(4-((3S,4R)-3,4-difluoropyrrolidine-1-carbonyl)phenyl)cyclopropyl)imidazo[1,2-b]pyridazin-6-yl)pyrimidine-2,4(1H,3H)-dione] | 4.45 |
| O=C(c1ccc([C@H]2C[C@@H]2c2cc(-c3c[nH]c(=O)[nH]c3=O)nn3ccnc23)cc1)N1CC(C(F)(F)F)C1 (racemic) [Example 291, 5-(8-((1S,2S)-2-(4-(3-(trifluoromethyl)azetidine-1-carbonyl)phenyl)cyclopropyl)imidazo[1,2-b]pyridazin-6-yl)pyrimidine-2,4(1H,3H)-dione] | 3.25 |
| O=c1[nH]cc(-c2cc([C@H]3C[C@@H]3c3nc4ccccc4[nH]3)c3nccn3n2)c(=O)[nH]1 (racemic) [Example 461, 5-(8-((1S,2S)-2-(1H-benzo[d]imidazol-2-yl)cyclopropyl)imidazo[1,2-b]pyridazin-6-yl)pyrimidine-2,4(1H,3H)-dione] | 2.56 |
| O=c1[nH]cc(-c2cc([C@H]3C[C@@H]3c3ncc(C(F)(F)F)cn3)c3nccn3n2)c(=O)[nH]1 (racemic) [Example 377, 5-(8-((1S,2S)-2-(5-(trifluoromethyl)pyrimidin-2-yl)cyclopropyl)imidazo[1,2-b]pyridazin-6-yl)pyrimidine-2,4(1H,3H)-dione] | 7.66 |
| O=c1[nH]cc(-c2cc([C@H]3C[C@@H]3c3cnn(C(F)F)c3)c3nccn3n2)c(=O)[nH]1 (racemic) [Example 368, 5-(8-((1S,2S)-2-(1-(difluoromethyl)-1H-pyrazol-4-yl)cyclopropyl)imidazo[1,2-b]pyridazin-6-yl)pyrimidine-2,4(1H,3H)-dione] | 3.73 |
| N#Cc1cccc([C@H]2C[C@@H]2c2cc(-c3c[nH]c(=O)[nH]c3=O)nn3ccnc23)c1F (racemic) [Example 408, 3-((1S,2S)-2-(6-(2,4-dioxo-1,2,3,4-tetrahydropyrimidin-5-yl)imidazo[1,2-b]pyridazin-8-yl)cyclopropyl)-2-fluorobenzonitrile] | 2.35 |
| O=c1[nH]cc(-c2cc([C@H]3C[C@@H]3c3ccncc3)c3ncc(F)n3n2)c(=O)[nH]1 (racemic) [Example 181, 5-(3-fluoro-8-((1S,2S)-2-(pyridin-4-yl)cyclopropyl)imidazo[1,2-b]pyridazin-6-yl)pyrimidine-2,4(1H,3H)-dione] | 2.42 |
| O=C(c1cccc([C@H]2C[C@@H]2c2cc(-c3c[nH]c(=O)[nH]c3=O)nn3ccnc23)c1)N1CC(F)(F)C(F)(F)C1 (racemic) [Example 304, 5-(8-((1S,2S)-2-(3-(3,3,4,4-tetrafluoropyrrolidine-1-carbonyl)phenyl)cyclopropyl)imidazo[1,2-b]pyridazin-6-yl)pyrimidine-2,4(1H,3H)-dione] | 3.59 |
| O=c1[nH]cc(-c2cc([C@H]3C[C@@H]3c3ccc4cnn(CC5CC5(F)F)c4c3)c3nccn3n2)c(=O)[nH]1 (mixture of isomers) [Example 118, 5-(8-((1S,2S)-2-(1-((2,2-difluorocyclopropyl)methyl)-1H-indazol-6-yl)cyclopropyl)imidazo[1,2-b]pyridazin-6-yl)pyrimidine-2,4(1H,3H)-dione] | 0.79 |
| O=c1[nH]cc(-c2cc([C@H]3C[C@@H]3c3ccc4ncccc4c3)c3nccn3n2)c(=O)[nH]1 (racemic) [Example 157, 5-(8-((1S,2S)-2-(quinolin-6-yl)cyclopropyl)imidazo[1,2-b]pyridazin-6-yl)pyrimidine-2,4(1H,3H)-dione] | 1.06 |
| O=c1[nH]cc(-c2cc([C@H]3C[C@@H]3c3cccc4cnccc34)c3nccn3n2)c(=O)[nH]1 (racemic) [Example 168, 5-(8-((1S,2S)-2-(isoquinolin-5-yl)cyclopropyl)imidazo[1,2-b]pyridazin-6-yl)pyrimidine-2,4(1H,3H)-dione] | 72.5 |
| O=c1[nH]cc(-c2cc([C@H]3C[C@@H]3c3cc4c(ccn4CC(F)(F)F)cn3)c3nccn3n2)c(=O)[nH]1 (racemic) [Example 127, 5-(8-((1S,2S)-2-(1-(2,2,2-trifluoroethyl)-1H-pyrrolo[3,2-c]pyridin-6-yl)cyclopropyl)imidazo[1,2-b]pyridazin-6-yl)pyrimidine-2,4(1H,3H)-dione] | 1.13 |
| O=C1N(CC(F)(F)F)c2cc([C@H]3C[C@@H]3c3cc(-c4c[nH]c(=O)[nH]c4=O)nn4c(Cl)cnc34)ccc2C12CC2 [Example 740, 5-(3-chloro-8-((1S,2S)-2-(2′-oxo-1′-(2,2,2-trifluoroethyl)spiro[cyclopropane-1,3′-indolin]-6′-yl)cyclopropyl)imidazo[1,2-b]pyridazin-6-yl)pyrimidine-2,4(1H,3H)-dione] | 0.61 |
| CC1(C)C(=O)N(CC(F)(F)F)c2cc([C@H]3C[C@@H]3c3cc(-c4c[nH]c(=O)[nH]c4=O)nn4ccnc34)ncc21 (racemic) [Example 718, 5-[8-[(1S,2S)-2-[3,3-dimethyl-2-oxo-1-(2,2,2-trifluoroethyl)pyrrolo[3,2-c]pyridin-6-yl]cyclopropyl]imidazo[1,2-b]pyridazin-6-yl]-1H-pyrimidine-2,4-dione] | 3.07 |
